Laboratory results published in US7772252B2, “Heterocyclic substituted carbonyl derivatives and their use as dopamine D3 receptor ligands” (Aventis Pharmaceuticals Inc., priority 2001, dated 2010).
Like-named read-outs stand apart in the source and are kept apart here.

Target: T1, cloned human dopamine D3 receptors (Homo sapiens, UniProt P35462)
T1 construct: expressed in transfected cells; membrane homogenate
Assay: [N-Methyl-3H]Spiroperidol binding to cloned human dopamine D3 receptors
How it was run: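 Stably transfected CHO cells expressing cloned human D3 receptor were used as membranes homogenized in 10% DMSO. Ligand was [N-methyl-3H]spiroperidol displacement.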

T1 sequence (P35462 whole entry): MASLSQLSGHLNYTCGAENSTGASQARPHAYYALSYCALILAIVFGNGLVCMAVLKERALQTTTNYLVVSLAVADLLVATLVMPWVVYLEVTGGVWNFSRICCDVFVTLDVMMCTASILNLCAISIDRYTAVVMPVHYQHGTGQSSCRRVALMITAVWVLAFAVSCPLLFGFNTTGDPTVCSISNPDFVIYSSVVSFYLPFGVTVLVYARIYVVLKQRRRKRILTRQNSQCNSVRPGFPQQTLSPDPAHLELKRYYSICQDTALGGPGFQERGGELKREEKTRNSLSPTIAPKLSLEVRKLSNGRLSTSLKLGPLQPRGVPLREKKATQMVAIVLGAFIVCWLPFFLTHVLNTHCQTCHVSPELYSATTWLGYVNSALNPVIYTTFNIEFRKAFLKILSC

Compound	Ki (read-out: D3 Ki)	Ki (read-out: d3Ki)
Cn1nc(C2CCN(C[C@@H]3C[C@H]3C(=O)N3CCC[C@@H](Cn4ccnc4)C3)CC2)c2ccc(C(F)(F)F)cc21 [A002437353, (3S-Imidazol-1-ylmethyl-piperidin-1-yl)-{2R-[4-(1-methyl-6-trifluoromethyl-1H-indazol-3-yl)-piperidin-1-ylmethyl]-1R-cyclopropyl}-methanone]	0.937 nM	–
O=C([C@@H]1C[C@H]1CN1CCN(c2csc3cc(C(F)(F)F)ccc23)CC1)N1CCCC(CN2CCCNCC2)C1 (mixture of isomers) [A002437358]	8.86 nM	–
O=C([C@@H]1C[C@H]1CN1CCC(c2noc3ccsc23)CC1)N1CCN(c2ccc(F)cc2)CC1 [compound 829465]	80.3 nM	–
COc1ccccc1CN1CCC(NC(=O)[C@@H]2C[C@H]2CN2CCC(c3noc4ccsc34)CC2)CC1 [compound 832724]	1.44 nM	–
O=C(NC1CCN(CC2CC2)CC1)[C@@H]1C[C@H]1CN1CCC(c2noc3ccsc23)CC1 [compound 833483]	0.93 nM	–
O=C(NCc1cccc(Oc2ccccc2)c1)C1CC1CN1CCC(c2noc3ccsc23)CC1 (racemic) [compound 831735]	81.3 nM	–
O=C(NC1CCN(CC2CCCCC2)CC1)[C@@H]1C[C@H]1CN1CCC(c2noc3ccsc23)CC1 [compound 832733]	0.656 nM	–
O=C([C@@H]1C[C@H]1CN1CCN(c2csc3cc(C(F)(F)F)ccc23)CC1)N1CCC(n2ccnc2)CC1 [compound 833513]	43.1 nM	–
O=C(C1CC1CN1CCC(c2noc3ccsc23)CC1)N1CCN(Cc2ccc(Cl)cc2)CC1 (racemic) [compound 832156]	0.315 nM	–
O=C(NCC1CCNCC1)[C@@H]1C[C@H]1CN1CCC(c2noc3ccsc23)CC1 [compound 833386]	36.5 nM	–
O=C(NC1CCN(Cc2ccc(C(F)(F)F)cc2)CC1)[C@@H]1C[C@H]1CN1CCC(c2noc3ccsc23)CC1 [compound 833160]	2.09 nM	–
Cn1nc(C2CCN(C[C@@H]3C[C@H]3C(=O)N[C@H]3CC[C@H](O)CC3)CC2)c2cccc(C(F)(F)F)c21 [compound 833080]	22.9 nM	–
CC1CCC(NC(=O)C2CC2CN2C3CCC2CC(c2n[nH]c4ccccc24)C3)CC1 (centres unmarked) [compound 830115]	45.3 nM	–
O=C(NCC1CCCNC1)[C@@H]1C[C@H]1CN1CCN(c2csc3cc(C(F)(F)F)ccc23)CC1 (mixture of isomers) [compound 832504]	5.77 nM	–
CCC1CCC(NC(=O)C2CC2CN2CCC(Cc3ccccc3)CC2)CC1 (racemic) [compound 827248]	19.4 nM	–
O=C(N[C@H]1CC[C@H](O)CC1)[C@@H]1C[C@H]1CN1CCC(c2noc3ccsc23)CC1 [compound 830251]	11.4 nM	–
CCC1CCC(NC(=O)C2CC2CN2CCN(c3ccc(OC)cc3)CC2C)CC1 (racemic) [compound 827231]	60.6 nM	–
O=C(NC1CCN(Cc2ncc[nH]2)CC1)C1CC1CN1CCC(c2noc3ccsc23)CC1 (racemic) [compound 832392]	2.29 nM	–

Compound	Ki (read-out: D3 Ki)	Ki (read-out: d3Ki)
Cn1nc(N2CCN(C[C@@H]3C[C@H]3C(=O)NCCCn3cnc4ccccc43)CC2)c2sccc21 [A002202403]	86.8 nM	–
CC1CCC(NC(=O)C2CC2CN2CCCN(c3onc4c3CCc3ccccc3-4)CC2)CC1 (racemic) [compound 830123]	73.8 nM	–
C[C@H]1CC[C@H](NC(=O)[C@@H]2C[C@H]2CN2CCN(c3csc4ncccc34)CC2)CC1 [compound 833700]	3.24 nM	–
CCN1CCC(NC(=O)C2CC2CN2CCC(c3noc4ccsc34)CC2)CC1 (racemic) [compound 833372]	1.04 nM	–
C[C@H]1CC[C@H](NC(=O)C2(CCN3CCC(c4noc5ccsc45)CC3)CC2)CC1 [832241A]	51.8 nM	–
CC(=O)N1CCCCC1CCNC(=O)[C@@H]1C[C@H]1CN1CCN(c2csc3cc(C(F)(F)F)ccc23)CC1 (mixture of isomers) [compound 833064]	28.8 nM	–
O=C(NC1CCN(Cc2ccc(F)cc2)CC1)C1CC1CN1CCC(c2noc3ccsc23)CC1 (racemic) [compound 831993]	2.51 nM	–
O=C(NC1CCN(Cc2cccc(Cl)c2)CC1)[C@@H]1C[C@H]1CN1CCN(c2csc3cc(C(F)(F)F)ccc23)CC1 [compound 832740]	30.2 nM	–
NCCN1CCN(C(=O)[C@@H]2C[C@H]2CN2CCN(c3csc4cc(C(F)(F)F)ccc34)CC2)CC1 [compound 833323]	3.46 nM	–
CCC1CCC(NC(=O)C2CC2CN2C3CCC2CC(c2n[nH]c4cc(F)ccc24)C3)CC1 (centres unmarked) [compound 830130]	6.68 nM	–
C[C@H]1CC[C@H](NC(=O)[C@@H]2C[C@H]2CN2CCN(c3nc4cccc5c4n3CCC5)CC2)CC1 [compound 833699, 2R-[4-(5,6-Dihydro-4H-imidazo[4,5,1-ij]quinolin-2-yl)-piperazin-1-ylmethyl]-1R-cyclopranecarboxylic acid (trans-4-methyl-cyclohexyl)-amide]	7.2 nM	–
CC(C)(C)OC(=O)N1CCC(NC(=O)C2CC2CN2CCC(c3noc4ccsc34)CC2)CC1 (racemic) [compound 832391]	77.9 nM	–
O=C([C@@H]1C[C@H]1CN1CCC(c2noc3ccsc23)CC1)N1CCN(C/C=C/c2ccccc2)CC1 [compound 829467]	9.01 nM	–
O=C(NC1CCN(Cc2cccc(F)c2)CC1)C1CC1CN1CCC(c2noc3ccsc23)CC1 (racemic) [compound 831994]	2.68 nM	–
CN(C)Cc1ccc(CSCCNC(=O)C2CC2CN2CCC(c3noc4ccsc34)CC2)o1 (racemic) [compound 831740]	2.96 nM	–
CC1CCC(NC(=O)C2CC2CN2CCN(c3noc4ccsc34)CC2)CC1 (racemic) [compound 830127]	1.66 nM	–
O=C(NCC1CCNCC1)[C@@H]1C[C@H]1CN1CCC(c2nn(CC(F)(F)F)c3ccsc23)CC1 [A002440435A]	305 nM	–
C[C@H]1CC[C@H](NC(=O)[C@@H]2C[C@H]2CN2CCC(c3nn(-c4ccccc4)c4ccsc34)CC2)CC1 [compound 833909]	1.86 nM	–

The next lines start with the values.

Ki (read-out: D3 Ki)	Ki (read-out: d3Ki)	Compound
48.3 nM	–	O=C(NCc1ccc(-c2csnn2)cc1)[C@@H]1C[C@H]1CN1CCN(c2csc3cc(C(F)(F)F)ccc23)CC1 [compound 833515]
66.1 nM	–	O=C(NC1CCN(C(=O)c2ccc(Cl)s2)CC1)C1CC1CN1CCC(c2noc3ccsc23)CC1 (racemic) [compound 832487]
520 nM	–	Cn1nc(C2CCN(C[C@@H]3C[C@H]3C(=O)NCCCN3CCCCC3)CC2)c2sccc21 [A002436290]
–	14.3 nM	O=C(CCCN1CCN(c2csc3cc(F)ccc23)CC1CCCc1ccccc1)N(CCO)C1CCCCC1 (centres unmarked) [compound 827111]
22.1 nM	–	COc1ccc(CCNC(=O)[C@@H]2C[C@H]2CN2CCC(c3noc4ccsc34)CC2)cc1 [compound 831344]
67.7 nM	–	O=C(NCCCN1CCCC1=O)[C@@H]1C[C@H]1CN1CCC(c2noc3ccsc23)CC1 [compound 830832]
291 nM	–	O=C(NCCS(=O)(=O)c1ccccc1)C1CC1CN1CCC(c2noc3ccsc23)CC1 (racemic) [compound 831736]
16.8 nM	–	O=C([C@@H]1C[C@H]1CN1CCC(c2noc3ccsc23)CC1)N1CCN(CCCc2ccccc2)CC1 [compound 833131]
1.84 nM	–	Cc1cccc(CN2CCC(NC(=O)[C@@H]3C[C@H]3CN3CCC(c4noc5ccsc45)CC3)CC2)c1 [compound 832788]
1.76 nM	–	O=C(N[C@H]1CC[C@H](O)CC1)[C@@H]1C[C@H]1CN1CCN(c2nn(-c3ccc(F)cc3)c3ccsc23)CC1 [compound 832566]
166 nM	–	O=C([C@@H]1C[C@H]1CN1CCC(c2cc3ccccc3s2)CC1)N1CCC(N2CCCC2)CC1 [compound 832715]
25.8 nM	–	O=C(NCCc1cccc(C(F)(F)F)c1)C1CC1CN1CCC(c2noc3ccsc23)CC1 (racemic) [compound 832047]
20.9 nM	–	O=C(NCCNc1ccccc1)C1CC1CN1CCC(c2noc3ccsc23)CC1 (racemic) [compound 831603]
27.3 nM	–	O=C(C1CC1CN1CCC(c2noc3ccsc23)CC1)N1CCC(Oc2ccc(Cl)cc2)CC1 (racemic) [compound 831794]
91.9 nM	–	O=C(NCCCN1CCCCC1)[C@@H]1C[C@H]1CN1CCN(c2csc3ncccc23)CC1 [A002437094]
19.6 nM	–	O=C(C1CC1CN1CCC(c2noc3ccsc23)CC1)N1CCC(c2ccccc2)C1 (racemic) [compound 831602]
35 nM	–	Cc1cn(CCCNC(=O)[C@@H]2C[C@H]2CN2CCC(c3noc4ccsc34)CC2)cn1 [compound 831937]
14.3 nM	–	COc1ccc2c(c1)c(N1CCN(C[C@@H]3C[C@H]3C(=O)NCC3CCNCC3)CC1)nn2C [compound 833136]
125 nM	–	CN1CCN(CCCNC(=O)C2CC2CN2CCC(c3noc4ccsc34)CC2)CC1 (racemic) [compound 831741]
0.495 nM	–	Cn1nc(N2CCN(C[C@@H]3C[C@H]3C(=O)N[C@H]3CC[C@H](C)CC3)CC2)c2ccccc21 [compound 833702]
25.1 nM	–	COc1ccc2c(c1)c(N1CCN(C[C@@H]3C[C@H]3C(=O)NCCCn3cnc4ccccc43)CC1)nn2C [A002243383]
114 nM	–	COc1ccc(CN2CCN(C(=O)[C@@H]3C[C@H]3CN3CCC(c4noc5ccsc45)CC3)CC2)cc1 [compound 833133]
5.68 nM	–	O=C(NC[C@@H]1CCNC1)[C@@H]1C[C@H]1CN1CCC(c2noc3ccsc23)CC1 [compound 833384]
12.1 nM	–	O=C(NCCc1cccc(Cl)c1)C1CC1CN1CCC(c2noc3ccsc23)CC1 (racemic) [compound 831799]
95 nM	–	CCN1CCN(C(=O)N2CCC(NC(=O)C3CC3CN3CCC(c4noc5ccsc45)CC3)CC2)C(=O)C1=O (racemic) [compound 832489]
20.8 nM	–	O=C(N[C@H]1CC[C@H](O)CC1)[C@@H]1C[C@H]1CN1CCN(c2nn(-c3ccc(C(F)(F)F)cc3)c3ccsc23)CC1 [compound 832648]
25 nM	–	CC(C)NC(=O)CN1CCN(C(=O)[C@@H]2C[C@H]2CN2CCN(c3csc4cc(C(F)(F)F)ccc34)CC2)CC1 [compound 832582]
40.6 nM	–	O=C(NC1CCN(C(=O)c2ccc(Cl)nc2)CC1)C1CC1CN1CCC(c2noc3ccsc23)CC1 (racemic) [compound 832505]
0.9 nM	–	O=C([C@@H]1C[C@H]1CN1CCN(c2csc3cc(C(F)(F)F)ccc23)CC1)N1CCC[C@@H](Cn2ccnc2)C1 [compound 833097]
